Consider 86 molecules from ChEMBL document CHEMBL1157539, “Thousands of chemical starting points for antimalarial lead identification” (Nature, 2010).

The subject of this test is Plasmodium falciparum. Briefly: GSK_TCMDC: Inhibition of Plasmodium falciparum 3D7 in whole erythrocytes, using parasite LDH activity as an index of growth. It counts as functional, organism-based.

Consider `CN1CCN(CC(=O)Nc2ccc(-c3csc(-c4nc5ccccc5[nH]4)c3)cc2)CC1`, for which the XC50 (Plasmodium falciparum, 3D7) was 1.56 µM.
As to `Cc1nc2nc(N)nc(N)c2c(C)c1Cc1ccc([N+](=O)[O-])cc1`, the XC50 (Plasmodium falciparum, 3D7) amounted to 0.438 µM.
Take `COCCNCc1cccc(-c2ccc3c(Nc4ccc(Oc5cccnc5)cc4)ccnc3c2)c1`: under “Plasmodium falciparum, 3D7”, the XC50 amounted to 0.178 µM.
`CN1C(=C2SC(=Nc3ccc4ncccc4c3)N(Cc3ccccc3)C2=O)Sc2ccc(Cl)cc21`: the XC50 (Plasmodium falciparum, 3D7) is 1.06 µM.
The molecule `CCc1ccc(CN2CCCCC(NC(=O)c3cc(-c4ccccc4F)cs3)C2)cc1` (configuration not stated) returned an XC50 (Plasmodium falciparum, 3D7) of 1.16 µM.
In the case of `COc1cccc(-c2ccc(C(=O)NCC3CCCN(Cc4cccc(C(F)(F)F)c4)C3)s2)c1` (configuration not stated), the XC50 (Plasmodium falciparum, 3D7) was 1.14 µM.
As to `Cc1ccc(-n2c(C)nc3c(Nc4ccc(-c5ccncc5)cc4)ncnc32)c(C)c1`, the XC50 (Plasmodium falciparum, 3D7) is 0.101 µM.
The same measure, in the same setting: the result for `COc1ccc2ccccc2c1C=NNc1ccnc2cc(Cl)ccc12` reads 0.615 µM.
Same read-out and setting: the result for `FC(F)(F)c1ccc2[nH]c(-c3cccc(-c4ccc(CNCc5ccccc5)cc4)c3)nc2c1` reads 0.163 µM; that for `COc1cc2nc(SCCCC#N)n(C3CCCCCC3)c(=N)c2cc1OC`, 1.14 µM; that for `N#CN1CC[C@H](CS(=O)(=O)c2cccc(Br)c2)C1`, 0.874 µM.
`O=C(Nc1ccc(Cl)c(Cl)c1)Nc1ccc(F)c([N+](=O)[O-])c1` gave an XC50 (Plasmodium falciparum, 3D7) of 0.696 µM.
On to `COc1ccc(OC)c(C(O)CNC(C)C)c1` (configuration not stated), for which, for the setting “Plasmodium falciparum, 3D7”, the XC50 is 0.056 µM.
On the same count and under the same terms, the result for `Cc1cc(-c2ccc3c(c2)CCN(CCC2CCC(NC(=O)/C=C/c4cccc(Cl)c4)CC2)CC3)on1` (configuration not stated) reads 0.589 µM; that for `O=C(NC1CCCC1)c1ccc(N2CCC(NCc3cc4cc(Cl)ccc4[nH]3)CC2)cc1`, 1.22 µM; that for `O=[N+]([O-])c1ccc(C=NNc2nc3ccccc3[nH]2)cc1`, 0.283 µM.
`CN1CCN(CCCN(Cc2csc(-c3ccc(CNCc4ccccc4)cc3)n2)C(=O)Nc2cccc(Cl)c2)CC1` yielded an XC50 (Plasmodium falciparum, 3D7) of 0.789 µM.
On the same count and under the same terms, with `O=[N+]([O-])c1ccc(Nc2nc(NCc3ccccc3)nc(N/N=C/c3ccccc3[N+](=O)[O-])n2)cc1` the figure was 0.157 µM; with `COc1ccc2nccc([C@@H](O)CN3CCC(NS(=O)(=O)c4cc(Br)c(Br)s4)CC3)c2c1`, 0.851 µM.
Where the note is “Plasmodium falciparum, 3D7”, `Nc1c2c(nc3ccc(C(=O)Nc4ccc(Br)cc4)cc13)CCCC2` gave an XC50 of 0.149 µM.
In the case of `Cc1cccc(CN2CCN(c3ncc(C(=O)NC4CC4)cc3Cl)CC2)c1`, the XC50 (Plasmodium falciparum, 3D7) stood at 1.31 µM.
Turning to `COc1ccc(CN2CCC(NCc3cccc(-n4ccnc4)c3)CC2)cc1`, for the setting “Plasmodium falciparum, 3D7”, the XC50 was found to be 0.629 µM.
Same read-out and setting: the result for `O=C(Nc1ccccc1)N(Cc1cccc(-c2ccc(CNCCc3ccccc3)cc2)c1)C1CCN(Cc2ccccc2)CC1` reads 0.349 µM; that for `CC12CC3CC(C)(C1)CC(Nc1nc(N4CCOCC4)nc4ccccc14)(C3)C2`, 0.938 µM.
For the molecule `O=C(Nc1ccccc1)Nc1cccc(-c2cccc(-c3nc4cc(F)ccc4[nH]3)c2)c1`, for the setting “Plasmodium falciparum, 3D7”, the XC50 was 0.176 µM.
The same measure, in the same setting: with `CCOC(=O)c1c(C)n(C2CCCCCC2)c2cc(Br)c(O)cc12` the figure was 1.2 µM.
Take `Oc1cccc(-c2nc(-c3cccc(I)c3)c(-c3ccc(-c4nc(-c5cccc(O)c5)[nH]c4-c4cccc(I)c4)cc3)[nH]2)c1`: the XC50 (Plasmodium falciparum, 3D7) is 0.925 µM.
On the same count and under the same terms, the result for `c1ccc(-c2ccc(-c3nc4ccccc4[nH]3)cc2)cc1` reads 0.809 µM; that for `CCc1cc(OC)c(C(=O)NC2CCN(C[C@H](O)c3ccnc4ccc(OC)cc34)CC2)cc1Br`, 0.815 µM; that for `O=C(Nc1ccc(Cl)cc1)Nc1cccc(CCNCc2ccccc2)c1`, 0.728 µM.
For `CCOc1c(OC)ccc2c1CCN(CCN1CCC(NC(=O)c3ccc(-c4cccc(C(F)(F)F)c4C(F)(F)F)cc3)CC1)C2`, the XC50 (Plasmodium falciparum, 3D7) came to 0.728 µM.
Turning to `O=C(Nc1ccc(CN2CCN(S(=O)(=O)c3ccc(Cl)s3)CC2)cc1)c1cccs1`, where the note is “Plasmodium falciparum, 3D7”, the XC50 came to 0.894 µM.
Turning to `COc1ccc(CN2CCCC(C(=O)c3ccc(C(F)(F)F)cc3)C2)c(O)c1` (configuration not stated), the XC50 (Plasmodium falciparum, 3D7) worked out at 0.849 µM.
The molecule `Cc1cc2ccc(CNCCc3ccccc3Br)cc2nc1N` yielded an XC50 (Plasmodium falciparum, 3D7) of 0.514 µM.
In turn, `Cc1nc(-c2cccc(C(=O)NC3CCC(CCN4CCc5ccc(-c6cccnc6)cc5CC4)CC3)c2)no1` (configuration not stated) came in with an XC50 (Plasmodium falciparum, 3D7) of 0.762 µM.
In turn, `CC1CCC(NC(=O)c2nn(-c3ccc(Cl)cc3)c(=O)c3ccccc23)CC1` (configuration not stated) came in with an XC50 (Plasmodium falciparum, 3D7) of 1.08 µM.
For `Cc1ccc(C(=O)NC2CCN(CCNC(=O)Nc3cc(C)nc4ccccc34)CC2)cc1`, the XC50 (Plasmodium falciparum, 3D7) amounted to 0.49 µM.
The molecule `Cc1cc(NCC2CCN(CC3CCCCC3)C2)nc(Nc2ccc(Cl)cc2)n1` (configuration not stated) displayed an XC50 (Plasmodium falciparum, 3D7) of 0.739 µM.
Still for that read-out and setting: the result for `Fc1ccc2[nH]c(-c3ccccc3)nc2c1CN1CCC(N2CCCC2)CC1` reads 0.717 µM.
For the setting “Plasmodium falciparum, 3D7”, `C[C@H](NC(=O)c1c(CN2CCC(N3CCCCC3)CC2)c(-c2ccccc2)nc2cc(O)ccc12)C1CCCCC1` displayed an XC50 of 0.759 µM.
Same read-out and setting: with `Nc1c(Cl)cc(C(O)CNCCCCCOCCc2ccc3occc3c2)cc1Cl` (configuration not stated) the figure was 0.69 µM; with `CCc1nc(N)nc(N)c1-c1ccccc1`, 1.18 µM; with `CC(C)(C)c1ccc(CNCC(C)(C)c2nc(-c3ccnc(N)n3)c(-c3ccc(Cl)c(O)c3)[nH]2)cc1`, 0.697 µM.
Where the note is “Plasmodium falciparum, 3D7”, `Oc1ccc2ccccc2c1C=NNc1nc(=Nc2ccccc2)nc(N2CCOCC2)[nH]1` yielded an XC50 of 0.885 µM.
The same measure, in the same setting: with `CCOC(=O)c1cccc(NC(=N)Nc2nc(C)cc(NCCc3ccccc3)n2)c1` the figure was 0.684 µM.
For the setting “Plasmodium falciparum, 3D7”, `COc1ccc2[nH]c(C)cc(=NN=Cc3ccc(Cl)cc3)c2c1` came in with an XC50 of 0.228 µM.
On the same count and under the same terms, with `CCN(CC)CCCC(C)Nc1c2cc(OC)ccc2nc2cc(Cl)c([N+](=O)[O-])cc12` (configuration not stated) the figure was 0.787 µM; with `COc1ccc2c(NN=Cc3cccnc3)ccnc2c1`, 0.684 µM.
`CC(=O)Nc1ccc2[nH]cc(C3CCN(CC4CCC(NC(=O)/C=C/c5ccc(Cl)c(Cl)c5)CC4)CC3)c2c1` (configuration not stated) gave an XC50 of 0.441 µM. This molecule returned an XC50 (Plasmodium falciparum, 3D7) of 0.719 µM.
Turning to `Cc1cc(OCC2CCCO2)c2cc(NC(=O)C(=O)Nc3ccc4nc(C)cc(OCC5CCCO5)c4c3)ccc2n1` (configuration not stated), under “Plasmodium falciparum, 3D7”, the XC50 came out at 0.804 µM.
On to `O=C(Cc1ccc[n+]([O-])c1)Nc1ccc(-c2cccc(-c3nc4cc(C(F)(F)F)ccc4[nH]3)c2)cc1`, for which, where the note is “Plasmodium falciparum, 3D7”, the XC50 was found to be 0.882 µM.
Turning to `CN(C)CCNCc1cccc(-c2cccc(-c3nc4ccccc4[nH]3)c2)c1`, under “Plasmodium falciparum, 3D7”, the XC50 is 0.766 µM.
Regarding `ON=C1CCc2cc(-c3[nH]c(-c4cccc(OCCNCc5ccc(F)cc5)c4)nc3-c3ccncc3)ccc21`, where the note is “Plasmodium falciparum, 3D7”, the XC50 was 0.89 µM.
Still for that read-out and setting: with `CCC(CN1C(=O)C(c2ccccc2)(c2ccccc2)N=C1N)c1ccccc1` (configuration not stated) the figure was 0.136 µM.
As to `Nc1cccc(CNCc2ccc(-c3ccc(-c4nc5ccccc5[nH]4)s3)cc2)c1`, the XC50 (Plasmodium falciparum, 3D7) is 0.574 µM.
Consider `C=Cc1ccc(-c2c(C)[nH]c(C)c(Br)c2=O)cc1`, for which the XC50 (Plasmodium falciparum, 3D7) was 0.556 µM.
For the molecule `FC(F)(F)c1ccc2[nH]c(-c3ccc(-c4cccc(CN5CCN(c6ccncc6)CC5)c4)cc3)nc2c1`, for the setting “Plasmodium falciparum, 3D7”, the XC50 was 0.118 µM.
Consider `COCCCC1C(=O)OC2CCCC21` (configuration not stated), for which the XC50 (Plasmodium falciparum, 3D7) is 0.699 µM.
`CCCC(CC)n1ccc2c3c(N)nc(N)nc3ccc21` (configuration not stated) gave an XC50 (Plasmodium falciparum, 3D7) of 0.00592 µM.
With `CC(=O)Nc1ccc(C(=O)Nc2ccc(-c3cccc(-c4nc5cc(C(F)(F)F)ccc5[nH]4)c3)cc2)cn1`, where the note is “Plasmodium falciparum, 3D7”, the XC50 was 0.111 µM.
For the molecule `CNC(=O)c1cnc(Nc2ccc(N3CCOCC3)cc2)nc1Nc1cccc(OC)c1`, the XC50 (Plasmodium falciparum, 3D7) was determined as 0.759 µM.
For the setting “Plasmodium falciparum, 3D7”, `COCc1ccc(CN2CCC(C(=O)Nc3ccc(-c4nc5ccccc5[nH]4)cc3)CC2)o1` yielded an XC50 of 0.853 µM.
For the molecule `CNCCCNc1ccnc2cc(Cl)ccc12`, under “Plasmodium falciparum, 3D7”, the XC50 came out at 0.0624 µM.
Regarding `CC[C@H]1CN2CC[C@@H]1C[C@H]2[C@H](O)c1cc(N2CCSCC2)nc2ccc(OC)cc12`, under “Plasmodium falciparum, 3D7”, the XC50 was determined as 0.199 µM.
Regarding `CC1=C(C(=O)Nc2cc3cn[nH]c3cc2F)C(c2cccc(O)c2F)CC(=O)N1` (configuration not stated), where the note is “Plasmodium falciparum, 3D7”, the XC50 is 0.629 µM.
On the same count and under the same terms, the result for `N=C(NCCc1c[nH]c2ccccc12)NCc1ccccc1Cl` reads 0.112 µM.
`Cc1cc(C(=O)Nc2ccc3c(c2)CCN3C2CCN(Cc3ccc(F)cc3Cl)C2)no1` (configuration not stated): the XC50 (Plasmodium falciparum, 3D7) turned out to be 0.189 µM.
Same read-out and setting: with `CCc1c(CCNC/C=C/C=C/CNCCc2ccc(OC)c(OC)c2CC)ccc(OC)c1OC` the figure was 0.968 µM.
For `O=C(Nc1cccc(CN2CCCN(Cc3ccc(O)cc3)CC2)c1)c1ccc(Cl)c(Cl)c1`, the XC50 (Plasmodium falciparum, 3D7) amounted to 0.259 µM.
As for `CS(=O)(=O)c1ccc(CNCc2ccc(-c3ccc(-c4nc5cc(C(F)(F)F)ccc5[nH]4)cc3)cc2)cc1`, the XC50 (Plasmodium falciparum, 3D7) came out at 0.706 µM.
With `CC(C)(C)CCN1CCC(NC(=O)c2ccc(-c3cccc(C(F)(F)F)c3)s2)CC1`, under “Plasmodium falciparum, 3D7”, the XC50 is 0.755 µM.
For `O=C(c1ccco1)N1CCN(c2nc(-c3ccc(Cl)cc3)nc3ccccc23)CC1`, the XC50 (Plasmodium falciparum, 3D7) is 0.934 µM.
For the molecule `c1ccc2c(NCCCCCCNc3c4ccccc4nc4ccccc34)c3ccccc3nc2c1`, the XC50 (Plasmodium falciparum, 3D7) was 0.753 µM.
On to `COc1cccc(NC(=O)Cn2c(C)c(C(=O)C(F)(F)F)c3ccccc32)c1`, for which the XC50 (Plasmodium falciparum, 3D7) stood at 0.827 µM.
On the same count and under the same terms, the result for `CCN1CCC(N(Cc2ccc(-c3ccc(C(F)(F)F)cc3)cc2)C(=O)Cn2c(CCc3cccc(F)c3F)cc(=O)c3ccc(OCc4ccccc4)cc32)CC1` reads 0.368 µM; that for `O=S(=O)(NCCN1CCCC1)c1cccc(-c2ccc(CNCc3ccc(F)cc3)cc2)c1`, 0.234 µM.
The same measure, in the same setting: the result for `COc1ccccc1CCC(C)(C)NC(=O)CC(CCc1ccccc1)Nc1ccc(C#N)c2ccccc12` (configuration not stated) reads 0.919 µM; that for `COc1ccccc1C(=O)Nc1ccc(Nc2nc(C)cc(N(C)C)n2)cc1`, 0.789 µM; that for `CC(=O)Nc1ncc(C(=O)Nc2cccc(-c3cccc(-c4nc5cc(F)ccc5[nH]4)c3)c2)s1`, 0.454 µM.
`Cc1cccc2nc(-c3ccc(-c4ccc(NC(=O)Nc5ccc(Cl)c(Cl)c5)cc4)cc3)[nH]c12`: the XC50 (Plasmodium falciparum, 3D7) turned out to be 0.826 µM.
In the case of `Oc1ccc(CCCNc2nc(NCc3ccccc3-c3ccccc3)nc(NC3CCNCC3)n2)cc1`, for the setting “Plasmodium falciparum, 3D7”, the XC50 came to 0.864 µM.
The molecule `CN(CCCCCN1CCC(NC(=O)Nc2ccc(Oc3ccccc3)cc2)C1)C(=O)/C=C/c1ccc(Cl)c(Cl)c1` (configuration not stated) registered an XC50 (Plasmodium falciparum, 3D7) of 0.421 µM.
In the case of `CN1CC=C(c2c[nH]c3ccc(Oc4ccccc4)cc23)CC1`, the XC50 (Plasmodium falciparum, 3D7) was 0.253 µM.
Still for that read-out and setting: the result for `COc1ccc(S(=O)(=O)NCCC2CCN(CCCCCNC(=O)C=Cc3ccc(Cl)c(Cl)c3)CC2)cc1` reads 0.957 µM; that for `O=C(N[C@H]1CCN(Cc2ccc(OC3CCN(Cc4ccccc4)CC3)c(Cl)c2)C1)c1ccc(Cl)c(Cl)c1`, 0.814 µM; that for `CCN(CC)CCN(CCN(CC)CC)c1ccc2c(c1)Sc1c(Cl)ccc(Cl)c1S2`, 0.876 µM.
